Measured values taken from ChEMBL document CHEMBL3399964, “Nine new diterpenes from the leaves of plantation-grown Cunninghamia lanceolata” (2015).
Counter-ions that a name gives are not always drawn.

Assay: Growth inhibition of human PC3 cells by colorimetric MTT assay
Assay type: functional
Details: PC-3

SMILES | GI50
COc1cccc2c1C(=O)c1c(O)c3c(c(O)c1C2=O)C[C@@](O)(C(=O)CO)C[C@@H]3O[C@H]1C[C@H](N)[C@H](O)[C@H](C)O1 [DOXORUBICIN HYDROCHLORIDE] | 1.1 µM
CC(C)c1cc2c3c(c1O)O[C@@H]1CCC(C)(C)[C@H](CC2)[C@@]31C | 27.4 µM
COc1cc(O)c2c(=O)cc(-c3ccc(O)c(-c4c(O)cc(O)c5c(=O)cc(-c6ccc(O)cc6)oc45)c3)oc2c1 [SEQUOIAFLAVONE] | 43.3 µM
C=C/C(C)=C/[C@@H](OC(C)=O)[C@H]1C(=C)CC[C@@H]2[C@]1(C)CCC[C@@]2(C)C(=O)O | 57.2 µM
Cc1cc2c(C(C)C)ccc(C)c2cc1O | 54 µM
C=C/C(C)=C/C[C@H]1C(=C)CC[C@H]2[C@](C)(CO)CCC[C@]12C | 35 µM
C=CC(=C)[C@@H](C[C@H]1C(=C)CC[C@@H]2[C@]1(C)CCC[C@@]2(C)C(=O)O)OO | 38 µM
COc1ccc(-c2cc(=O)c3c(O)cc(O)c(-c4cc(-c5cc(=O)c6c(O)cc(O)cc6o5)ccc4O)c3o2)cc1 [PODOCARPUSFLAVONE A] | > 100 µM
C=CC(=C)CC[C@@H]1[C@@]2(C)CCC[C@](C)(COC(=O)/C=C/c3ccccc3)[C@@H]2CC[C@@]1(C)O | 10.6 µM
C=C/C(C)=C/C[C@H]1C(=C)CC[C@@H]2[C@]1(C)CCC[C@@]2(C)C(=O)O | > 100 µM
C=CC(=C)[C@@H](C[C@H]1C(=C)CC[C@H]2[C@](C)(CO)CCC[C@]12C)OO | 34.4 µM
C=CC(=C)[C@H](C[C@H]1C(=C)CC[C@@H]2[C@]1(C)CCC[C@@]2(C)C(=O)O)OO | > 100 µM
C=CC(=C)CC[C@@H]1[C@@]2(C)CCC[C@](C)(COC(=O)/C=C\c3ccccc3)[C@@H]2CC[C@@]1(C)O | > 100 µM
C=CC(=C)[C@H](C[C@H]1C(=C)CC[C@H]2[C@](C)(CO)CCC[C@]12C)OO | 50.9 µM
C=C/C(C)=C/[C@@H](OC(C)=O)[C@H]1C(=C)CC[C@@H]2[C@]1(C)CCC[C@@]2(C)C(=O)OC | 58.3 µM
